Measurements as given in patent publication US20100166737A1, “P38Alpha as a Therapeutic Target in Bladder Carcinoma” (INSTITUT CURIE, priority 2007, published 2010).

Columns and labels:
[1] = tested on: FGFR3-S249C-expressing NIH-3T3 cells (clone S249C1.2); assay: Morphology analysis of FGFR3-S249C-expressing NIH-3T3 cells; format: cell-based; details: 30 μM, 48 h; FIG. 1C
Method: (§1) NIH-3T3 cells were cultured 48 h in presence of different inhibitors, SB203580 and SU5402 (Calbiochem, Merck Eurolab, Fontenay Sous Bois, France), and pictures were taken using a phase-contrast microscope.

NIH-3T3 control cells = assay: Morphology analysis of NIH-3T3 control cells; format: cell-based; details: data not shown
Method: as §1

[2] = tested on: FGFR3-S249C-expressing cells (S249C1.2); assay: Soft agar assay of FGFR3-S249C-expressing NIH-3T3 cells; format: cell-based; details: 21 days, colonies greater than 50 μm; FIG. 1D
Method: (§2) For NIH-3T3, 30,000 transfected cells were added, in triplicate, to each well of a 12-well plate containing DMEM supplemented with 10% NCS and solidified with agar. For MGH-U3, 20,000 non-transfected or siRNA-transfected cells were added, to triplicate wells of 12-well plates containing MEM supplemented with 10% FCS and agar. When necessary, both cell types were cultured in the presence or absence of different inhibitors in agar and in culture medium. The same amount of inhibitor was added to the culture medium weekly.
(§3) The plates were incubated for 21 or 14 days for NIH-3T3 and MGH-U3 cells respectively, and colonies with diameters greater than 50 μm were then scored as positive, using a phase-contrast microscope equipped with a measuring grid.

MGH-U3 cells = assay: Soft agar assay, anchorage-independent growth of MGH-U3 cells; format: cell-based, human; details: 14 days; FIG. 2C
Method: as §2, §3

MGH-U3 xenograft = MGH-U3 xenograft growth in athymic nude mice; format: in vivo; details: intratumoral, daily, 100 μl of 20 μM, up to 25 days; FIG. 2D
Method: Ten six-week-old female Swiss nu/nu mice were raised in the animal facilities of the Curie Institute in specified pathogen-free conditions. Their care and housing were in accordance with the institutional guidelines of the French National Ethics Committee (Ministere de l'Agriculture et de la Forêt, Direction de la Santë et de la Protection Animate, Paris, France) and were supervised by authorised investigators. Each mouse was injected subcutaneously in each flank (dorsal region) with 4×10^6 cells/site. When tumours reached 50 mm^3 (+/−10), mice were randomly separated into two group of 5 mice. 100 μl of 20 μM SB203580 or equal volume of PBS were administrated daily in tumours. Tumour formation was monitored for up to 25 days and the size of tumours was measured with Vernier calipers: two perpendicular diameters were used to estimate tumour volumes by the formule ab^2/2, where a is the largest and b the smallest diameter.

[3] = tested on: transgenic mice tumor cell proliferation; assay: BrdU labelling, snout tumour cell proliferation in K5-FGFR3-S249C transgenic mice; format: in vivo; details: 100 μM SB203580 on snout daily during 2 weeks; FIG. 3D
Method: (§4) Transgenic mice (K5-FGFR3-S249C) expressing mutated receptor FGFR3b— S249C in basal cells of the epidermis were established previously (Logi& et al 2005, Hum. Mol. Genet. 14, 1153-1160). 40 μl of 100 μM SU5402 or of 100 μM SB203580 or of vehicule (acetone) were applied daily during 2 weeks on snout of 3 to 4 months old transgenic mice who had developed epidermal tumours on snout or of control littermates mice. Two hours prior sacrifice mice were injected (i.p), with 0.25 mg/g body weight Brdu (Sigma, Saint-Quentin Falavier, France). Brdu immunohistochemistry was performed on parafine embed snout tissue with BrdU in situ detection kit (BD Pharmingen, San Diego, Calif., USA) according to the manufacturer's instructions. The number of BrdU-labeled cells among 500 cells from basal epidermis layer was determined for each mouse. Total snout cells lysate (75 μg) were analyzed as described above using antibodies against p38 and phospho-p38 (Pp38).

[4] = tested on: control mice basal epidermal cells; assay: BrdU labelling, basal epidermal cell proliferation in control littermate mice; format: in vivo; details: 100 μM SB203580 on snout daily during 2 weeks, FIG. 3D
Method: as §4

[5] = tested on: NIH-3T3 cell line transfected by mutated FGFR3-S249C; details: AACR abstract April 2005; cited from earlier work
[6] = tested on: NIH-3T3 cell line transfected by mutated FGFR3-S249C; details: AACR abstract April 2005; cited from earlier work; remark: listed apart in the source
[7] = tested on: p38 phosphorylation in FGFR3-S249C expressing NIH-3T3 clones; assay: Immunoblot of p38 phosphorylation in FGFR3-S249C expressing NIH-3T3 clones; format: cell-based; details: 30 μM SU5402, 24 hours; clones S249C1.1 and S249C1.2; FIG. 1B
Method: (§5) Transfected NIH-3T3 cells were washed once with PBS and serum-starved for 24 h. Where required, cells were stimulated for 5 min with 20 ng/ml FGF1 in the presence of 50 μg/ml heparin at 37° C. They were then lysed in lysis buffer (50 mM Tris-HCl (pH 7.4), 150 mM NaCl, 1% NP-40, 0.25% sodium deoxycholate, 1 mM EDTA, 1 mM Na3VO4, 5 mM NaF, 1 μ/ml aprotinin, 1 μg/ml leupeptin and 1 μg/ml pepstatin) and the lysates were clarified by centrifugation. The protein concentrations of the supernatants were determined with the Biorad Bradford Protein Assay Kit (BioRad, Ivry sur Seine, France). Proteins from total cell lysates (75 μg protein) were resolved by SDS-PAGE on 10% polyacrylamide gels, electrotransferred to Immobilon-P membrane in 25 mM Tris, pH 8.3, 200 mM glycine, 10% ethanol and analyzed using antibodies against p38 (#9212), Aid (#9272), p42/p44 (#9102) and the phosphorylated forms of these proteins (phospho AKT (Thr308) #9275; phospho p42/p44 (thr202/tyr204) # 9101; phospho p38 (thr180/tyr182) (cell signaling Technology, Ozyme, Montigny le Bretonneux, France)

[8] = tested on: p38 phosphorylation in MGH-U3 cells; assay: Immunoblot of p38 phosphorylation in MGH-U3 cells; format: cell-based, human; details: 30 μM SU5402, 24 hours; FIG. 2A
Method: as §5
MGH-U3 total cell lysates (75 μg) were analyzed similarly using antibodies against p38, phospho-p38 and Akt.

[9] = tested on: p38 phosphorylation in transgenic mice snout; assay: Immunoblot of p38 phosphorylation in snout of K5-FGFR3-S249C transgenic mice; format: in vivo; details: 100 μM SU5402 on snout daily during 2 weeks; FIG. 3C
Method: as §4

In the case of `C[S+]([O-])c1ccc(-c2nc(-c3ccncc3)c(-c3ccc(F)cc3)[nH]2)cc1` (stereo not drawn) [SB203580], the “transformed phenotype (morphology)” value [1] is reported as “reverted”, the “effect on the control cell phenotype” value (NIH-3T3 control cells) is reported as “no effect” and the “ability to form colonies in a soft agar assay” value [2] is reported as “inhibited”. For the same molecule, the “colonies on soft agar relative to control cells” value (MGH-U3 cells) was “one third”, the MGH-U3 xenograft growth (MGH-U3 xenograft) was “significantly reduced” and the “tumor cell proliferation (BrdU labelling)” value [3] was “significant decreased”. The “basal epidermal cells proliferation (BrdU labelling)” value [4] was “no effect”, the “transformed phenotype of the cells” value [5] was “inhibits” and the “abilities to form colonies in soft agar” value [6] was “inhibits”.
In the case of `Cc1c[nH]c(/C=C2\C(=O)Nc3ccccc32)c1CCC(=O)O` [SU5402], the p38 phosphorylation [7] is reported as “inhibited”, the “transformed phenotype (morphology)” value [1] is reported as “reverted” and the “effect on the control cell phenotype” value (NIH-3T3 control cells) is reported as “no effect”. The “ability to form colonies in a soft agar assay” value [2] was “inhibited”, the p38 phosphorylation [8] was “suppressed” and the p38 phosphorylation [9] was “decreased”.
